Experimental findings from US20120065103A1, “Prolyl Endopeptidase Probes” (priority 2010, published 2012) are described below.

Assay [1] concerns BALF proteases (prolyl endopeptidase activity). Nature of the assay: IQFP protease substrate profiling of BALF from infected and uninfected guinea pigs (Table 1). The class given is biochemical, guinea pig. The note with it: for FI infected / Fold infected: infected guinea pig BALF; for Fold enhancement: infected vs uninfected guinea pig BALF; for FI uninfected / Fold uninfected: uninfected guinea pig BALF. The source says: Methods: The substrate specificity of AF in vitro culture supernatant was profiled with a combinatorial IQFP library in comparison with human serum to identify fungus-specific substrates. An established guinea pig model of IA was used to collect BALF during active disease for in vivo protease substrate profiling.
(§1) Methods: Guinea pig inhalation model comprises neutropenia by cortisone acetate and cyclophosphamide (days −2 and +3), 1.2×10^8 conidia/mL nebulized AF in inhalation chamber, and serum and BALF obtained at predetermined time points; Vallor et al. Antimicrob. Ag. Chemother. 2008, 52.

Assay [2] deals with Aspergillus fumigatus infected and uninfected guinea pig broncheoaveolar lavage fluid. Briefly: Screening probes against Aspergillus fumigatus infected and uninfected guinea pig BALF (Table 2). The class given is biochemical.
Text: as §1
Table 2 Legend. Variable region (Xaa—Yaa—Zaa) of the top 6 peptide probes are all listed in single amino acid code; AF293 and CEA10 are the two strains of Aspergillus fumigatus infected guinea pig BALF samples screened in this study.
N stands for number of guinea pig BALF samples screened against the given peptide probe. Guinea pig infected and uninfected samples with very low background (t=0 hour) and end point values (t=6 hour) (i.e., no greater than 100 units difference between t=0 hour and t=6 hour) were not selected for the statistical calculations.
Mean fold change values is the average of fluorescence fold change calculated for each guinea pig sample screened against respective peptide probe. Fluorescence fold change values are calculated according to the formula:
Fold Change=Fluorescence measured at time t=6 hour/Fluorescence measured at time t=0 hour.
* Fold change values for these peptide probes were calculated at time t=3 hour as the end point value.
SD corresponds to standard deviation calculated for the given probe screened against the respective BALF sample.
Percentage fluorescence efficiency (% FE) is calculated for each probe as follows, % FE=100 * [(Fold changeInfected BALF-Fold changeUninfected BALF)/Fold changeuninfected BALF] Fold change values are all the mean fold change values.
P values are calculated with two tailed student t-test with two sample unequal variance for each peptide probe screened against respective infected and uninfected BALF samples. […]

[3] abbreviates: strain AF293, t=6 hour vs t=0 hour.
[4] abbreviates: strain AF293 series, t=6 hour vs t=0 hour.
[5] abbreviates: strain CEA10, t=6 hour vs t=0 hour.
Setting [6] is: strain CEA10 series, t=6 hour vs t=0 hour.
Where [7] appears, read: strain AF293, end point t=3 hour.
Where [8] appears, read: strain AF293, end point t=3 hour vs t=0 hour.
Setting [9] is: strain AF293 series, end point t=3 hour vs t=0 hour.
Setting [10] is: strain CEA10, end point t=3 hour.
[11] abbreviates: strain CEA10, end point t=3 hour vs t=0 hour.
The mark [12] stands for this setting: strain CEA10 series, end point t=3 hour vs t=0 hour.

For the substance MeOCGly-G-G-P-A/V-N/Q-G-G-Dap(Dnp)-K-K, in assay [1], the FI infected is reported as 325, the Fold infected is 2.18, the Fold enhancement is given as 2.13 and the FI uninfected was determined as 188. The substance further gave a Fold uninfected in assay [1] of 1.02.

With MeOCGly-G-G-P-A/V-P-G-G-Dap(Dnp)-K-K, in assay [1], the FI infected worked out at 488, the Fold infected is listed as 2.85, the Fold enhancement is reported as 2.62 and the FI uninfected is listed as 234. The substance also returned a Fold uninfected in assay [1] of 1.09.

With MeOCGly-G-G-P-D/E-K/R-G-G-Dap(Dnp)-K-K, in assay [1], the FI infected was 161, the Fold infected was found to be 1.64, the Fold enhancement amounted to 2.02 and the FI uninfected was 118. The Fold uninfected in assay [1] is listed as 0.81.

For the substance MeOCGly-G-G-P-D/E-P-G-G-Dap(Dnp)-K-K, in assay [1], the FI infected is given as 349, the Fold infected amounted to 2.3, the Fold enhancement amounted to 2.31 and the FI uninfected worked out at 213. For the same substance, in assay [1], the Fold uninfected is reported as 1.

With MeOCGly-G-G-P-F/Y-A/V-G-G-Dap(Dnp)-K-K, in assay [1], the FI infected is reported as 493, the Fold infected was 3.06, the Fold enhancement was determined as 2.04 and the FI uninfected is listed as 294. Moreover, the Fold uninfected in assay [1] turned out to be 1.5.

Regarding MeOCGly-G-G-P-F/Y-K/R-G-G-Dap(Dnp)-K-K, in assay [1], the FI infected amounted to 238, the Fold infected was determined as 2.09, the Fold enhancement stood at 2.06 and the FI uninfected worked out at 151. The substance further yielded a Fold uninfected in assay [1] of 1.01.

On to MeOCGly-G-G-P-F/Y-N/Q-G-G-Dap(Dnp)-K-K, for which, in assay [1], the FI infected came to 286, the Fold infected came out at 2.8, the Fold enhancement was 2.15 and the FI uninfected was found to be 154. This substance also registered a Fold uninfected in assay [1] of 1.31.

With MeOCGly-G-G-P-F/Y-P-G-G-Dap(Dnp)-K-K, in assay [1], the FI infected turned out to be 424, the Fold infected is 4.71, the Fold enhancement came to 4.07 and the FI uninfected stood at 124. This substance showed a Fold uninfected in assay [1] of 1.16.

Regarding MeOCGly-G-G-P-I/L-P-G-G-Dap(Dnp)-K-K, in assay [1], the FI infected turned out to be 474, the Fold infected is reported as 2.74, the Fold enhancement turned out to be 2.21 and the FI uninfected came out at 223. This substance also yielded a Fold uninfected in assay [1] of 1.24.

As to MeOCGly-G-G-P-K/R-P-G-G-Dap(Dnp)-K-K, in assay [1], the FI infected came out at 498, the Fold infected stood at 2.88, the Fold enhancement is 2.37 and the FI uninfected was determined as 213. This substance also yielded a Fold uninfected in assay [1] of 1.22.

As to MeOCGly-G-G-P-N/Q-A/V-G-G-Dap(Dnp)-K-K, in assay [1], the FI infected was 394, the Fold infected stood at 4.02, the Fold enhancement is on record as 3.33 and the FI uninfected came out at 151. The substance further gave a Fold uninfected in assay [1] of 1.21.

Consider MeOCGly-G-G-P-N/Q-P-G-G-Dap(Dnp)-K-K, for which, in assay [1], the FI infected is 598, the Fold infected worked out at 3.93, the Fold enhancement was found to be 2.76 and the FI uninfected stood at 261. Moreover, the Fold uninfected in assay [1] was found to be 1.43.

Turning to MeOCGly-G-G-P-S/T-A/V-G-G-Dap(Dnp)-K-K, in assay [1], the FI infected is given as 467, the Fold infected amounted to 4.28, the Fold enhancement is 2.39 and the FI uninfected came out at 176. Moreover, in assay [1], the Fold uninfected was 1.8.

On to MeOCGly-G-G-P-S/T-F/Y-G-G-Dap(Dnp)-K-K, for which, in assay [1], the FI infected came to 397, the Fold infected was found to be 3.31, the Fold enhancement is 3.08 and the FI uninfected came to 146. The same substance yielded a Fold uninfected in assay [1] of 1.07.

Regarding MeOCGly-G-G-P-S/T-P-G-G-Dap(Dnp)-K-K, in assay [1], the FI infected is reported as 665, the Fold infected came out at 3.63, the Fold enhancement stood at 2.81 and the FI uninfected amounted to 277. Further, the Fold uninfected in assay [1] was 1.29.

Turning to MeOCGly-GGPFPGG Dap(DNP)KK-NH2, the “% FE (percentage fluorescence efficiency)” value in assay [2] (strain AF293, t=6 hour) is listed as 227.09%; in assay [2] (strain CEA10, t=6 hour) it was 326.24%. Besides, the entries for the “Mean Fold change, Infected BALF” value in assay [2] (setting [3]) and in assay [2] (setting [5]) were 6.58 and 12.44, respectively. Also, the entries for the “Mean Fold Change, Uninfected BALF” value in assay [2] (setting [4]) and in assay [2] (setting [6]) were 2.01 and 2.92, respectively.

As for MeOCGly-GGPHPGG Dap(DNP)KK-NH2, the “% FE (percentage fluorescence efficiency)” value in assay [2] (strain AF293, t=6 hour) is reported as 219.69%; in assay [2] (strain CEA10, t=6 hour), 217.59%. Moreover, the “Mean Fold change, Infected BALF” value in assay [2] (setting [3]) stood at 4.47; in assay [2] (setting [5]), 10.61. For the same substance, the “Mean Fold Change, Uninfected BALF” value in assay [2] (setting [4]) is 1.40; in assay [2] (setting [6]), 3.34.

As for MeOCGly-GGPNPGG Dap(DNP)KK-NH2, the “% FE (percentage fluorescence efficiency)” value in assay [2] (setting [7]) is on record as 274.00%; in assay [2] (setting [10]), 252.39%. The “Mean Fold change, Infected BALF” value in assay [2] (setting [8]) is given as 5.68; in assay [2] (setting [11]) it was 13.68. The “Mean Fold Change, Uninfected BALF” value in assay [2] (setting [9]) came out at 1.52; in assay [2] (setting [12]), 3.88.

As to MeOCGly-GGPNPNPGG Dap(DNP)KK-NH2, the “% FE (percentage fluorescence efficiency)” value amounted to 355.02% in assay [2] (strain AF293, t=6 hour) and 111.20% in assay [2] (strain CEA10, t=6 hour). The figures for the “Mean Fold change, Infected BALF” value in assay [2] (setting [3]) and in assay [2] (setting [5]) were 13.47 and 8.72, respectively. The figures for the “Mean Fold Change, Uninfected BALF” value in assay [2] (setting [4]) and in assay [2] (setting [6]) were 2.96 and 4.13, respectively.

Take MeOCGly-GGPSPGG Dap(DNP)KK-NH2: the “% FE (percentage fluorescence efficiency)” value in assay [2] (strain AF293, t=6 hour) is 309.39%; in assay [2] (strain CEA10, t=6 hour), 142.55%. For the same substance, the “Mean Fold change, Infected BALF” value is reported as 12.49 in assay [2] (setting [3]) and 11.00 in assay [2] (setting [5]). Besides, the “Mean Fold Change, Uninfected BALF” value is on record as 3.05 in assay [2] (setting [4]) and 4.54 in assay [2] (setting [6]).

With MeOCGly-GGPYPGG Dap(DNP)KK-NH2, the “% FE (percentage fluorescence efficiency)” value in assay [2] (setting [7]) was determined as 203.00%; in assay [2] (setting [10]), 310.44%. Besides, the “Mean Fold change, Infected BALF” value in assay [2] (setting [8]) came to 5.42; in assay [2] (setting [11]) it was 14.62. The figures for the “Mean Fold Change, Uninfected BALF” value in assay [2] (setting [9]) and in assay [2] (setting [12]) were 1.79 and 3.56, respectively.
